We go through 1 substance from patent US20090186854A1, “S-ALKYLISOTHIOURONIUM DERIVATIVES FOR THE TREATMENT OF INFLAMMATORY DISEASES” (Meditor Pharmaceuticals Ltd., priority 2006, published 2009).

For one data set, the system named is healthy male subjects. Briefly: Phase I clinical trial, safety of escalating doses. The format is in vivo, human. As to conditions: 12 healthy male subjects. As to the method: Based on animal toxicological studies and on the accumulated data on human patients, S-ethylisothiouronium diethylphosphate was approved for a Phase I clinical trial. In this study, the pharmacokinetic profile as well as safety of escalating doses (0.6-2.4 mg/kg) of S-ethylisothiouronium diethylphosphate were assessed in 12 healthy male subjects.

Another data set deals with rats. Description: Animal toxicological studies (single or repeated dose, LD50).

For S-ethylisothiouronium diethylphosphate, in the data set on healthy male subjects (doses up to 1.2 mg/kg), the Adverse events entry is reported as “no recorded adverse events”. Besides, the Well tolerated dose result in the data set on healthy male subjects (escalating doses 0.6-2.4 mg/kg) is listed as “up to 1.2 mg/kg”. For the same substance, the LD50 entry with rats (in rats) is given as “up to 400 mg/kg”. Further, the “LD50 relative to therapeutically recommended dose” value in the data set on rats (rats LD50 vs therapeutically recommended dose of 0.6-1.2 mg/kg) is given as 300-400 fold.
